Counter-ions that a name gives are not always drawn.
What follows are molecules tested on Human mast cells (CHMC) (assay: LD Tryptase release assay in CHMC (mast cell activation induced by FcγR cross-linking)). Conditions: Homo sapiens, Mast cell, anti-IgG stimulation, activity of tryptase released upon degranulation.
Format: cell-based
Summary of the method: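 Mast cells derived from CD38-negative progenitors were preincubated 1 h at 37 °C with compound in HEPES-buffered saline (pH 7.4, 0.1% BSA, compound diluted in buffer with 2% MeOH/1% DMSO). Cells were then stimulated 60 min with anti-human IgG (final 1 μg/mL). Released tryptase was measured on Z-Ala-Lys-Arg-AMC (30 min, room temperature, 355/460 nm) to give the IC50.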

Compound | IC50 [µM]
CN(C[C@@H]1CCCO1)c1ccc(Nc2ncc(F)c(Nc3ccc4c(n3)NC(=O)CO4)n2)cn1 [Compound 108, N4-(3,4-dihydro-3-oxo-2H-pyrido[3,2-b][1,4]oxazin-6-yl)-5-fluoro-N2-[6-(((S)-methyl(tetrahydrofuran-2-yl)methyl)amino)pyridin-3-yl]-2,4-pyrimidinediamine] | 0.1 to 0.5
O=C1COc2ccc(Nc3nc(Nc4cnc(N5CCOCC5)c(F)c4)ncc3F)nc2N1 [Compound 16, N4-(3,4-dihydro-3-oxo-2H-pyrido[3,2-b][1,4]oxazin-6-yl)-5-fluoro-N2-[5-fluoro-6-morpholinopyridin-3-yl]-2,4-pyrimidinediamine] | 0.1 to 0.5
CC1(C)Oc2ccc(Nc3nc(Nc4ccc(N5CCC6(CCCO6)CC5)cc4)ncc3F)nc2NC1=O [Compound 156, N4-(2,2-dimethyl-3,4-dihydro-3-oxo-2H-pyrido[3,2-b][1,4]oxazin-6-yl)-5-fluoro-N2-[4-(1-oxa-8-azaspiro[4.5]decan-8-yl)phenyl]-2,4-pyrimidinediamine] | 0.1 to 0.5
CN(C)C[C@@H]1CN(c2ccc(Nc3ncc(F)c(Nc4ccc5c(n4)NC(=O)C(C)(C)O5)n3)cc2)CCO1 [Compound 122] | 0.1 to 0.5
CC1(C)Oc2ccc(Nc3nc(Nc4ccc(N5CCC(O)CC5)cc4)ncc3F)nc2NC1=O [Compound 77, N4-(2,2-dimethyl-3,4-dihydro-3-oxo-2H-pyrido[3,2-b][1,4]oxazin-6-yl)-5-fluoro-N2-[4-(4-hydroxypiperidin-1-yl)phenyl]-2,4-pyrimidinediamine] | < 0.1
CN(C)C[C@@H]1CN(c2ccc(Nc3ncc(F)c(Nc4ccc5c(n4)NC(=O)CO5)n3)cc2)CCO1 (racemic) [Compound 121, rac-N4-(3,4-dihydro-3-oxo-2H-pyrido[3,2-b][1,4]oxazin-6-yl)-N2-[4-((2-dimethylaminomethyl)morpholino)phenyl]-5-fluoro-2,4-pyrimidinediamine] | < 0.1
CC1(C)Oc2ccc(Nc3nc(Nc4ccc(N5CCC(N6CCOCC6)C5)nc4)ncc3F)nc2NC1=O (stereo not drawn) [Compound 67, N4-(2,2-dimethyl-3,4-dihydro-3-oxo-2H-pyrido[3,2-b][1,4]oxazin-6-yl)-5-fluoro-N2-[6-(3-morpholinopyrrolidin-1-yl)pyridin-3-yl]-2,4-pyrimidinediamine] | 0.1 to 0.5
C[C@H]1COCCN1c1ccc(Nc2ncc(F)c(Nc3ccc4c(n3)NC(=O)C(C)(C)O4)n2)cn1 [Compound 138, N4-(2,2-dimethyl-3,4-dihydro-3-oxo-2H-pyrido[3,2-b][1,4]oxazin-6-yl)-5-fluoro-N2-[6-((3S)-3-methylmorpholino)pyridin-3-yl]-2,4-pyrimidinediamine] | 0.1 to 0.5
COc1cc(Nc2ncc(F)c(Nc3ccc4c(n3)NC(=O)C(C)(C)O4)n2)cnc1N1CCOCC1 [Compound 21, N4-(2,2-dimethyl-3,4-dihydro-3-oxo-2H-pyrido[3,2-b][1,4]oxazin-6-yl)-5-fluoro-N2-[5-methoxy-6-morpholinopyridin-3-yl]-2,4-pyrimidinediamine] | 0.1 to 0.5
C[C@@H]1CN(c2ccc(Nc3ncc(F)c(Nc4ccc5c(n4)NC(=O)CO5)n3)cn2)C[C@H](C)O1 [Compound 95, rac-Cis-N4-(3,4-dihydro-3-oxo-2H-pyrido[3,2-b][1,4]oxazin-6-yl)-N2-[6-(2,6-dimethylmorpholino)pyridin-3-yl]-5-fluoro-2,4-pyrimidinediamine] | 0.1 to 0.5
CC1(C)CN(c2ccc(Nc3ncc(F)c(Nc4ccc5c(n4)NC(=O)C(C)(C)O5)n3)cc2)CCO1 [Compound 116, N4-(2,2-dimethyl-3,4-dihydro-3-oxo-2H-pyrido[3,2-b][1,4]oxazin-6-yl)-N2-[4-(2,2-dimethylmorpholino)phenyl]-5-fluoro-2,4-pyrimidinediamine] | < 0.1
CC1(C)Oc2ccc(Nc3nc(Nc4ccc(N5CCOC5=O)nc4)ncc3F)nc2NC1=O [Compound 72, N4-(2,2-dimethyl-3,4-dihydro-3-oxo-2H-pyrido[3,2-b][1,4]oxazin-6-yl)-5-fluoro-N2-[6-(2-oxooxazolidin-3-yl)pyridin-3-yl]-2,4-pyrimidinediamine] | 0.1 to 0.5
[2H]C1([2H])OC([2H])([2H])C([2H])([2H])N(c2ccc(Nc3ncc(F)c(Nc4ccc5c(n4)NC(=O)C(C)(C)O5)n3)cn2)C1([2H])[2H] [Compound 107, N4-(2,2-dimethyl-3,4-dihydro-3-oxo-2H-pyrido[3,2-b][1,4]oxazin-6-yl)-5-fluoro-N2-[6-(2,2,3,3,5,5,6,6-d8-morpholino)pyridin-3-yl]-2,4-pyrimidinediamine] | < 0.1

The next lines start with the values.

IC50 [µM] | Compound
0.1 to 0.5 | COc1cc(Nc2ncc(F)c(Nc3ccc4c(n3)NC(=O)C(C)(C)O4)n2)ccc1C1CCOCC1 [Compound 48, N4-(2,2-dimethyl-3,4-dihydro-3-oxo-2H-pyrido[3,2-b][1,4]oxazin-6-yl)-5-fluoro-N2-[-3-methoxy-4-tetrahydropyranophenyl]-2,4-pyrimidinediamine]
1 to 100 | CC1(C)Oc2ccc(Nc3nc(Nc4ccc(-c5cccnc5)nc4)ncc3F)nc2NC1=O [Compound 75, N4-(2,2-dimethyl-3,4-dihydro-3-oxo-2H-pyrido[3,2-b][1,4]oxazin-6-yl)-5-fluoro-N2-[2,3′-bipyridin-5-yl]-2,4-pyrimidinediamine]
0.1 to 0.5 | CC1(C)Oc2ccc(Nc3nc(Nc4ccc(N5CCOCC5=O)cc4)ncc3F)nc2NC1=O [Compound 40, N4-(2,2-dimethyl-3,4-dihydro-3-oxo-2H-pyrido[3,2-b][1,4]oxazin-6-yl)-5-fluoro-N2-[4-(morpholin-2-one)phenyl]-2,4-pyrimidinediamine]
0.1 to 0.5 | COC1CCN(c2ccc(Nc3ncc(F)c(Nc4ccc5c(n4)NC(=O)C(C)(C)O5)n3)cn2)CC1 [Compound 53, N4-(2,2-dimethyl-3,4-dihydro-3-oxo-2H-pyrido[3,2-b][1,4]oxazin-6-yl)-5-fluoro-N2-[6-(4-methoxypiperidin-1-yl)pyridin-3-yl]-2,4-pyrimidinediamine]
< 0.1 | Cc1cc(Nc2ncc(F)c(Nc3ccc4c(n3)NC(=O)CO4)n2)cnc1N1CCOC(C)(C)C1 [Compound 12, N4-(3,4-dihydro-3-oxo-2H-pyrido[3,2-b][1,4]oxazin-6-yl)-5-fluoro-N2-[5-methyl-6-(2,2-dimethylmorpholino)pyridin-3-yl]-2,4-pyrimidinediamine]
< 0.1 | CC1(C)Oc2ccc(Nc3nc(Nc4ccc(N5CCC(O)CC5)nc4)ncc3F)nc2NC1=O [Compound 52, N4-(2,2-dimethyl-3,4-dihydro-3-oxo-2H-pyrido[3,2-b][1,4]oxazin-6-yl)-5-fluoro-N2-[6-(4-hydroxypiperidin-1-yl)pyridin-3-yl]-2,4-pyrimidinediamine]
< 0.1 | Cc1cc(Nc2ncc(F)c(Nc3ccc4c(n3)NC(=O)CO4)n2)cnc1N1CCOCC1 [Compound 11, N4-(3,4-dihydro-3-oxo-2H-pyrido[3,2-b][1,4]oxazin-6-yl)-5-fluoro-N2-[5-methyl-6-morpholinopyridin-3-yl]-2,4-pyrimidinediamine]
< 0.1 | CC1(C)Oc2ccc(Nc3nc(Nc4ccc(N5CCOCC5)cc4)ncc3F)nc2NC1=O [Compound 1, N4-(2,2-dimethyl-3,4-dihydro-3-oxo-2H-pyrido[3,2-b][1,4]oxazin-6-yl)-5-fluoro-N2-(4-morpholinophenyl)-2,4-pyrimidinediamine]
1 to 100 | CC1(C)Oc2ccc(Nc3nc(Nc4ccc(N5CC(O)C5)nc4)ncc3F)nc2NC1=O [Compound 146, N4-(2,2-dimethyl-3,4-dihydro-3-oxo-2H-pyrido[3,2-b][1,4]oxazin-6-yl)-5-fluoro-N2-[6-(3-hydroxyazetidin-1-yl)pyridin-3-yl]-2,4-pyrimidinediamine]
0.1 to 0.5 | CCO[C@H]1CCN(c2ccc(Nc3ncc(F)c(Nc4ccc5c(n4)NC(=O)C(C)(C)O5)n3)cn2)C1 [Compound 57, N4-(2,2-dimethyl-3,4-dihydro-3-oxo-2H-pyrido[3,2-b][1,4]oxazin-6-yl)-5-fluoro-N2-1-2,4-pyrimidinediamine]

Same assay, conditions: anti-IgG stimulation, activity of tryptase released upon degranulation

Compound | IC50 [µM]
CC1(C)Oc2ccc(Nc3nc(Nc4ccc(N5CCOCC5)nc4)ncc3F)nc2NC1=O [Compound 141, N4-(2,2-dimethyl-3,4-dihydro-3-oxo-2H-pyrido[3,2-b][1,4]oxazin-6-yl)-5-fluoro-N2-[6-morpholinopyridin-3-yl]-2,4-pyrimidinediamine benzenesulfonic acid salt] | 0.1 to 0.5
